Test results published in publication PMC9025901, “New Genetic Bomb Trigger: Design, Synthesis, Molecular Dynamics Simulation, and Biological Evaluation of Novel BIBR1532-Related Analogs Targeting Telomerase against Non-Small Cell Lung Cancer” (Pharmaceuticals, 2022).

Tests used:
[1] = target: T1, telomerase inside living cancer cells HCC44 (Homo sapiens, UniProt O14746); test: Living-cell TRAP assay, HCC44; format: cell-based; details: percent of control cells, 10 µM, 48 h
T1 construct: host or cells: HCC44

[2] = target: T2, telomerase (Homo sapiens, UniProt O14746); test: TRAP / RTQ-TRAP telomerase activity assay in A549 cell-free lysates; format: biochemical; details: telomerase inhibition, mean ± SEM;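 note: telomerase activity measured in cell-free extracts of human A549 epithelial lung carcinoma cells, tested across a range of inhibitor concentrations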
T2 construct: A549 cells (human epithelial cell lung carcinoma, ATCC, Manassas, VA) were lysed in; host or cells: A549 cell lysate (CHAPS extract, 5 µg total protein)

[3] = target: T3, telomerase inside living cancer cells NCI-H23 (Homo sapiens, UniProt O14746); test: Living-cell TRAP assay, NCI-H23; format: cell-based; details: percent of control cells, 10 µM, 48 h
T3 construct: host or cells: NCI-H23

[4] = target: T4, telomerase inside living cancer cells A549 (Homo sapiens, UniProt O14746); test: Living-cell TRAP assay, A549; format: cell-based; details: percent of control cells, 10 µM, 48 h
T4 construct: host or cells: A549

[5] = system: advanced non-small cell lung cancer; design: method as in PMID 32733068, PMID 25467017; details: phase II clinical trials, patients with advanced non-small cell lung cancer; cited from earlier work
[6] = design: method as in PMID 18256617, PMID 32733068, PMID 32125789; details: cited from earlier work

T2 sequence (O14746 whole entry): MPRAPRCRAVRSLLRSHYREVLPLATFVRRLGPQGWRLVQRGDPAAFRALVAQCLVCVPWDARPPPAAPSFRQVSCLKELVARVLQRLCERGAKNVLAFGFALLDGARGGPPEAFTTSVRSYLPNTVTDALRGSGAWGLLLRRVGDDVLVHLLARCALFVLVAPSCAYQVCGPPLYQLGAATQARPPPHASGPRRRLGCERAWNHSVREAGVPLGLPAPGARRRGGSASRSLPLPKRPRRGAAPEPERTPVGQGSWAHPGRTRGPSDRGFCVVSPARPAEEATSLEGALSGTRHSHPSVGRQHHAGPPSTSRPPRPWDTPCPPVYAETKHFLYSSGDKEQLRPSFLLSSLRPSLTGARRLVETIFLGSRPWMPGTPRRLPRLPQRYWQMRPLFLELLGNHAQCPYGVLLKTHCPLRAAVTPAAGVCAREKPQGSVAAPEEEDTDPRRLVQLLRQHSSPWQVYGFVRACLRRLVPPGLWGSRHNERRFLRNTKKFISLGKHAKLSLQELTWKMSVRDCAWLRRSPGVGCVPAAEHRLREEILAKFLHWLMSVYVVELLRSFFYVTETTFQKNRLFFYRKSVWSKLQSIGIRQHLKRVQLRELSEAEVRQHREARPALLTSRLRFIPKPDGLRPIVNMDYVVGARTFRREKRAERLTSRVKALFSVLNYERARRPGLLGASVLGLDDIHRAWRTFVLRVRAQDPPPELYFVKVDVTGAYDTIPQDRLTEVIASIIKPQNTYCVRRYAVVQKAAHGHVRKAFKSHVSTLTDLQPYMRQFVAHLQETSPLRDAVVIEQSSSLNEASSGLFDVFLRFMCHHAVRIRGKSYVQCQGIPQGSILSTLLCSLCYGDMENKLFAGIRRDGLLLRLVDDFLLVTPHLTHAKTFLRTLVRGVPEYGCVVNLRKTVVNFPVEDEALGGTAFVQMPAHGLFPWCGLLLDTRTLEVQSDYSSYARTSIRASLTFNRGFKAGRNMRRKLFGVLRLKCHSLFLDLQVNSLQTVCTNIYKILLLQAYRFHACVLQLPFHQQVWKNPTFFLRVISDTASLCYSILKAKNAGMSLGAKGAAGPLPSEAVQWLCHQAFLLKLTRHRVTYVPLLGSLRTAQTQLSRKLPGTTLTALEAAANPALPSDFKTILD
T2 sequence (O60832 whole entry partner): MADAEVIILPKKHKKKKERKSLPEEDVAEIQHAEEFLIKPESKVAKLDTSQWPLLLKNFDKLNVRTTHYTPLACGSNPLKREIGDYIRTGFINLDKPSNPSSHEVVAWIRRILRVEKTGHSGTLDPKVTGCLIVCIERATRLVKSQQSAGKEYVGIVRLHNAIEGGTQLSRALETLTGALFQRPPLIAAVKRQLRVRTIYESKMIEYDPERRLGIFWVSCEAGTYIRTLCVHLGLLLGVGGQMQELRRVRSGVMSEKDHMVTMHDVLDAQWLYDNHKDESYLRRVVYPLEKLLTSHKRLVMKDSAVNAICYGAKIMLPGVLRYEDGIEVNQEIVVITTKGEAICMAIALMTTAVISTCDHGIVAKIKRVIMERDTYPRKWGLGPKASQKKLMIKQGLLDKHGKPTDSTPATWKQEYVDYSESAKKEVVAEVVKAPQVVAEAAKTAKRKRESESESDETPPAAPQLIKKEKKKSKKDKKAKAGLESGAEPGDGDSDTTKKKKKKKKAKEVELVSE
T2 sequence (Q9NX24 whole entry partner): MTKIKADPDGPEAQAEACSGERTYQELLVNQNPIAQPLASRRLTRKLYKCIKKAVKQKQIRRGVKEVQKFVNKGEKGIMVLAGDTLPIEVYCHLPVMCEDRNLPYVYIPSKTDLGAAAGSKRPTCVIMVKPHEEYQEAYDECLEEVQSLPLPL
T2 sequence (Q9NPE3 whole entry partner): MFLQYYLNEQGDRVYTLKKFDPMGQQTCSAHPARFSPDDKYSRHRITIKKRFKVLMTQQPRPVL
T2 sequence (Q9NY12 whole entry partner): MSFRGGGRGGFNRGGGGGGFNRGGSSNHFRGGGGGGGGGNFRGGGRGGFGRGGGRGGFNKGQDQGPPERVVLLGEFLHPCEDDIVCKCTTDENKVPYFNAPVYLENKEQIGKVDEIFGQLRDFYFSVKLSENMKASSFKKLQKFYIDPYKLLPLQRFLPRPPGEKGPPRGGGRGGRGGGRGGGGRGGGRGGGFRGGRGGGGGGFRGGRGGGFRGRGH
T2 sequence (Q9BUR4 whole entry partner): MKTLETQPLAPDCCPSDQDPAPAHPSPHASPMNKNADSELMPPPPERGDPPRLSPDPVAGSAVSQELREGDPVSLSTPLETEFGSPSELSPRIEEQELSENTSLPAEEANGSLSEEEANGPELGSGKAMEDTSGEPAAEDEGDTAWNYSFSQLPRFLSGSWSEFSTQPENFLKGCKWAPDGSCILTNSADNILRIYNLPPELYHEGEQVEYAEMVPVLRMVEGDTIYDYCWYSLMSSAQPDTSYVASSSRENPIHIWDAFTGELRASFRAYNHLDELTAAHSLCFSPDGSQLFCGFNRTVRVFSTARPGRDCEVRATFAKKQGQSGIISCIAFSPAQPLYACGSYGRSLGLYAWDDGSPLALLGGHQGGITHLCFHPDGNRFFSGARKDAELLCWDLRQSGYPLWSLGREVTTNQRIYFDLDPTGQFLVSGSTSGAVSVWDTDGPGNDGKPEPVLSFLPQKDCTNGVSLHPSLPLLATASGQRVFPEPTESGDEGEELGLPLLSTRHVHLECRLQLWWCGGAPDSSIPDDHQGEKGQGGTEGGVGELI
T4 sequence (O14746 whole entry): as the sequence (O14746 whole entry) above
T4 sequence (O60832 whole entry partner): as the sequence (O60832 whole entry partner) above
T4 sequence (Q9NX24 whole entry partner): as the sequence (Q9NX24 whole entry partner) above
T4 sequence (Q9NPE3 whole entry partner): as the sequence (Q9NPE3 whole entry partner) above
T4 sequence (Q9NY12 whole entry partner): as the sequence (Q9NY12 whole entry partner) above
T4 sequence (Q9BUR4 whole entry partner): as the sequence (Q9BUR4 whole entry partner) above
T1 sequence (O14746 whole entry): as the sequence (O14746 whole entry) above
T1 sequence (O60832 whole entry partner): as the sequence (O60832 whole entry partner) above
T1 sequence (Q9NX24 whole entry partner): as the sequence (Q9NX24 whole entry partner) above
T1 sequence (Q9NPE3 whole entry partner): as the sequence (Q9NPE3 whole entry partner) above
T1 sequence (Q9NY12 whole entry partner): as the sequence (Q9NY12 whole entry partner) above
T1 sequence (Q9BUR4 whole entry partner): as the sequence (Q9BUR4 whole entry partner) above
T3 sequence (O14746 whole entry): as the sequence (O14746 whole entry) above
T3 sequence (O60832 whole entry partner): as the sequence (O60832 whole entry partner) above
T3 sequence (Q9NX24 whole entry partner): as the sequence (Q9NX24 whole entry partner) above
T3 sequence (Q9NPE3 whole entry partner): as the sequence (Q9NPE3 whole entry partner) above
T3 sequence (Q9NY12 whole entry partner): as the sequence (Q9NY12 whole entry partner) above
T3 sequence (Q9BUR4 whole entry partner): as the sequence (Q9BUR4 whole entry partner) above

Row | % Telomerase Activity in Cancer Cells [1] | IC50 [2] | IC90 [2] | % Telomerase Activity in Cancer Cells [3] | % Telomerase Activity in Cancer Cells [4] | melting point | Compound | overall survival [5] | cellular uptake [6] | pharmacokinetics [6]
1 | 75.6 ± 7.9% | 2 ± 0.03 µM | 7.1 ± 0.3 µM | 50.3 ± 5.1% | 41.5 ± 6.9% | 284 to 286 °C | N#C/C(=C\c1c[nH]c2ccccc12)C(=O)Nc1sc2c(c1C#N)CCCC2 [Compound 39b, (2E)-2-Cyano-N-(3-cyano-4,5,6,7-tetrahydro-1-benzothiophen-2-yl)-3-(1H-indol-3-yl)prop-2-enamide] |  |  | 
2 |  |  |  |  |  |  | Imetelstat | no improvement in overall survival |  | 
3 |  |  | 5.6 ± 0.02 µM |  |  |  | C/C(=C\C(=O)Nc1ccccc1C(=O)O)c1ccc2ccccc2c1 [BIBR1532] |  | low cellular uptake | poor pharmacokinetics
